These results are taken from patent US9255100B2 (BAYER INTELLECTUAL PROPERTY GMBH, priority 2010, dated 2016).

Where only a bound is given, the exact number is not on record here.

For this assay, the target named is T1, N-terminally GST-tagged human full length recombinant Mps-1 kinase (Homo sapiens, UniProt P33981).
T1 construct: N-terminally GST-tagged human full length recombinant Mps-1 kinase; purchased Invitrogen, Karslruhe, Germany PV4071
T1 sequence (P33981 1-857): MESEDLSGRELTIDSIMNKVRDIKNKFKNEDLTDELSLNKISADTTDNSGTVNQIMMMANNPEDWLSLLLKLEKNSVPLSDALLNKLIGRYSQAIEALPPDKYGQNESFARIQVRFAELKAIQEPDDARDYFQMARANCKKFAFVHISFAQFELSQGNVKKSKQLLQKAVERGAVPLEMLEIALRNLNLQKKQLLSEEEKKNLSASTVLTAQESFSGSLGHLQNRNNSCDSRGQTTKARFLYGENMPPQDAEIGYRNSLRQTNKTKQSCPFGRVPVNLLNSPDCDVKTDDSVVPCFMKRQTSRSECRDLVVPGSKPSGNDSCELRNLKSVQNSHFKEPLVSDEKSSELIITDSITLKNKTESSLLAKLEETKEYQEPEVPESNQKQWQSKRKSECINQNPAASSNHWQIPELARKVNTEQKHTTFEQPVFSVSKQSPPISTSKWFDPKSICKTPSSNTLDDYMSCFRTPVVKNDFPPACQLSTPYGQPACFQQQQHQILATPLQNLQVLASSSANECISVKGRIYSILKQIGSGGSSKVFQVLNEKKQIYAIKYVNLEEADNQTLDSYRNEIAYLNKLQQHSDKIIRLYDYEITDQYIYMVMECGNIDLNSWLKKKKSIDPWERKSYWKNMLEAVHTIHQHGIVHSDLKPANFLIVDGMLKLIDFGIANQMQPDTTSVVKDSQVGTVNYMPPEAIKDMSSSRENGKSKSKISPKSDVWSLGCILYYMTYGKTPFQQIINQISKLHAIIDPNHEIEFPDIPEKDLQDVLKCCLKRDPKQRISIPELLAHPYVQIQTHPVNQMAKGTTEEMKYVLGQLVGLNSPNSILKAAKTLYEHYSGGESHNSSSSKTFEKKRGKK
Put plainly: Mps-1 kinase assay (TR-FRET). It counts as biochemical. The following applies: Mps1 IC50 [nM], 10 μM ATP, 1 μM peptide substrate, 60 min at 22° C. In outline:
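Inhibition of Mps-1 (N-terminal GST fusion, full length) toward a biotinylated peptide is read as Eu-to-XLent TR-FRET. Enzyme level, around 1 nM final, follows lot activity.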
As to `Cc1cc(-c2cnc3c(NCC4CCOC4)cc(Oc4cccc(F)c4)nn23)ccc1C(=O)NC1CC1` (stereo not drawn) [Example 328, N-cyclopropyl-4-{6-(3-fluorophenoxy)-8-[(tetra-hydrofuran-3-ylmethyl)amino]imidazo[1,2-b]pyridazin-3-yl}-2-methyl-benzamide], the IC50 came to 0.3 nM. Next, `Cc1cc(-c2cnc3c(NCC4CC(=O)N(C)C4)cc(Oc4cccc(F)c4)nn23)ccc1C(=O)NC1CC1` (stereo not drawn) [Example 329, N-cyclopropyl-4-[6-(3-fluorophenoxy)-8-{[(1-methyl-5-oxopyrrolidin-3-yl)methyl]amino}imidazo [1,2-b]pyridazin-3-yl]-2-methylbenzamide]: less than 0.1 nM; `Cc1cc(-c2cnc3c(NCC4CC(F)(F)C4)cc(Oc4cccc(F)c4)nn23)ccc1C(=O)NC1CC1` [Example 330, N-cyclopropyl-4-[8-{[(3,3-difluorocyclobutyl)methyl]amino}-6-(3-fluoro-phenoxy)imidazo[1,2-b]pyridazin-3-yl]-2-methyl-benzamide]: 0.2 nM. As for `COCCNc1cc(NCC(C)(C)O)c2ncc(-c3ccc(C(=O)NC4CC4)c(C)c3)n2n1` [Example 331, N-cyclopropyl-4-{8-[(2-hydroxy-2-methylpropyl)amino]-6-[(2-methoxy-ethyl)amino]imidazo[1,2-b]pyridazin-3-yl}-2-methylbenzamide], the figure is 12.6 nM; as for `Cc1cc(-c2cnc3c(NCC(C)(C)O)cc(Oc4ccncc4)nn23)ccc1C(=O)NC1CC1` [Example 332, N-cyclopropyl-4-{8-[(2-hydroxy-2-methylpropyl)amino]-6-(pyridin-4-yl-oxy)imidazo[1,2-b]pyridazin-3-yl}-2-methylbenzamide], 26.8 nM. As for `Cc1cc(-c2cnc3c(NCC(C)(C)O)cc(Sc4ccncc4)nn23)ccc1C(=O)NC1CC1` [Example 333, N-cyclopropl-4-{8-[(2-hydroxy-2-methylpropyl)amino]-6-(pyridin-4-yl-sulfanyl)imidazo[1,2-b]pyridazin-3-yl}-2-methyl-benzamide], the IC50 was 9.5 nM. As for `Cc1cc(-c2cnc3c(NCC(C)(C)O)cc(Sc4ccccn4)nn23)ccc1C(=O)NC1CC1` [Example 334, N-cyclopropyl-4-{8-[(2-hydroxy-2-methylpropyl)amino]-6-(pyridin-2-yl-sulfanyl)imidazo[1,2-b]pyridazin-3-yl}-2-methyl-benzamide], the figure is 30 nM; as for `Cc1cc(-c2cnc3c(NCC(C)(C)O)cc(SC4CCOCC4)nn23)ccc1C(=O)NC1CC1` [Example 335, N-cyclopropyl-4-{8-[(2-hydroxy-2-methylpropyl)amino]-6-(tetrahydro-2H-pyran-4-ylsulfanyl)imidazo[1,2-b]pyridazin-3-yl}-2-methylbenzamide], 3.6 nM. Next, `Cc1cc(-c2cnc3c(NCC(C)(C)O)cc(SC4CCCC4)nn23)ccc1C(=O)NC1CC1` [Example 336, 4-{6-(cyclopentylsulfanyl)-8-[(2-hydroxy-2-methylpropyl)amino]imidazo[1,2-b]pyridazin-3-yl}-N-cyclopropyl-2-methyl-benzamide]: 1 nM; `Cc1cc(-c2cnc3c(NCC(C)(C)O)cc(N4CCCCC4)nn23)ccc1C(=O)NC1CC1` [Example 337, N-cyclopropyl-4-{8-[(2-hydroxy-2-methylpropyl)amino]-6-(piperidin-1-yl)imidazo[1,2-b]pyridazin-3-yl}-2-methyl-benzamide]: 3.9 nM. As for `Cc1cc(-c2cnc3c(NCC4CNC4)cc(-c4ccccc4CO)nn23)ccc1C(=O)NC1CC1` [Example 338, 4-{8-[(azetidin-3-ylmethyl)amino]-6-[2-(hydroxymethyl)phenyl]imidazo[1,2-b]pyridazin-3-yl}-N-cyclo-propyl-2-methylbenzamide], the figure is 83.9 nM; as for `Cc1cc(-c2cnc3c(NCC4CN(C(=O)OC(C)(C)C)C4)cc(-c4ccccc4CO)nn23)ccc1C(=O)NC1CC1` [Example 339, tert-butyl 3-[({3-[4-(cyclopropylcarbamoyl)-3-methylphenyl]-6-[2-(hydroxy-methyl)phenyl]imidazo[1,2-b]pyridazin-8-yl}amino)methyl]azetidine-1-carboxylate], 95.9 nM. Regarding `Cc1cc(-c2cnc3c(NCC4CCC(C)(O)CC4)cc(-c4ccccc4CO)nn23)ccc1C(=O)NC1CC1` (stereo not drawn) [Example 340, N-cyclopropyl-4-(8-{[(4-hydroxy-4-methylcyclohexyl)methyl]amino}-6-[2-(hydroxymethyl)phenyl]imidazo[1,2-b]pyridazin-3-yl)-2-methylbenzamide], the IC50 stood at 3.3 nM.

In the case of `Cc1cc(-c2cnc3c(NCCC(C)(C)O)cc(-c4ccccc4CO)nn23)ccc1C(=O)NC1CC1` [Example 341, N-cyclopropyl-4-{8-[(3-hydroxy-3-methylbutyl)amino]-6-[2-(hydroxy-methyl)phenyl]imidazo[1,2-b]pyridazin-3-yl}-2-methylbenzamide], the IC50 came to 10.6 nM. Take `Cc1cc(-c2cnc3c(NCC4CC(=O)N(C)C4)cc(-c4ccccc4CO)nn23)ccc1C(=O)NC1CC1` (stereo not drawn) [Example 344, N-cyclopropyl-4-(6-[2-(hydroxy-methyl)phenyl]-8-{[(1-methyl-5-oxo-pyrrolidin-3-yl)methyl]amino}imidazo[1,2-b]pyridazin-3-yl)-2-methyl-benzamide]: the IC50 is 23 nM. `Cc1cc(-c2cnc3c(NCC4CCOCC4)cc(-c4ccccc4CO)nn23)ccc1C(=O)NC1CC1` [Example 346, N-cyclopropyl-4-{6-[2-(hydroxy-methyl)phenyl]-8-[(tetrahydro-2H-pyran-4-ylmethyl)amino]imidazo[1,2-b]pyridazin-3-yl}-2-methyl-benzamide]: the IC50 worked out at 1.6 nM.

Consider `Cc1cc(-c2cnc3c(NCCC#N)cc(Oc4cccc(F)c4)nn23)ccc1C(=O)NC1CC1` [Example 347, 4-{8-[(2-cyanoethyl)amino]-6-(3-fluorophenoxy)imidazo[1,2-b]pyridazin-3-yl}-N-cyclopropyl-2-methylbenzamide], for which the IC50 stood at 0.1 nM.

As to `Cc1cc(-c2cnc3c(NCC(C)(C)O)cc(Nc4ccc(Cl)cc4F)nn23)ccc1C(=O)NC1CC1` [Example 348, 4-{6-[(4-chloro-2-fluorophenyl)amino]-8-[(2-hydroxy-2-methylpropyl)amino]imidazo[1,2-b]pyridazin-3-yl}-N-cyclopropyl-2-methylbenzamide], the half-maximal inhibitory concentration (IC50) was 1.5 nM. As to `COc1ccc(C)c(Nc2cc(NCC(C)(C)O)c3ncc(-c4ccc(C(=O)NC5CC5)c(C)c4)n3n2)c1` [Example 349, N-cyclopropyl-4-{8-[(2-hydroxy-2-methylpropyl)amino]-6-[(5-methoxy-2-methylphenyl)amino]imidazo[1,2-b]pyridazin-3-yl}-2-methylbenzamide], the IC50 was determined as 0.4 nM. As for `Cc1cc(-c2cnc3c(NCC(C)(C)O)cc(Nc4cc(F)cc(F)c4)nn23)ccc1C(=O)NC1CC1` [Example 351, N-cyclopropyl-4-{6-[(3,5-difluorophenyl)amino]-8-[(2-hydroxy-2-methylpropyl)amino]imidazo[1,2-b]pyridazin-3-yl}-2-methylbenzamide], the figure is 1 nM.

`Cc1cc(-c2cnc3c(NCC(C)(C)O)cc(Nc4cccc(F)c4F)nn23)ccc1C(=O)NC1CC1` [Example 352, N-cyclopropyl-4-{6-[(2,3-difluorophenyl)amino]-8-[(2-hydroxy-2-methylpropyl)amino]imidazo[1,2-b]pyridazin-3-yl}-2-methylbenzamide]: the 50% inhibitory concentration (IC50) stood at 0.2 nM.
